The source of these data is ChEMBL document CHEMBL5247610, “Discovery of 5-((4-(pyridin-3-yl)pyrimidin-2-yl)amino)-1H-indole-2-carboxamide derivatives as novel anti-cancer agents targeting Nur77” (Eur J Med Chem, 2022).

The subject of series [1] is HeLa. Briefly: Antiproliferative activity against human HeLa cells assessed as cell viability at 10 uM incubated for 48 hrs by MTT assay. In kind it is functional. Conditions: read-out: Activity. On the technique in general: Formazan colour is commonly taken as a measure of viable cells.
In series [2] the test system is HepG2. Description: Antiproliferative activity against human HepG2 cells assessed as cell viability at 10 uM incubated for 48 hrs by MTT assay. It is filed as functional. As to conditions: read-out: Activity.
The nature of series [3]: Cytotoxicity against human L02 cells assessed as cell viability at 10 uM incubated for 48 hrs by MTT assay. In kind it is toxicity, cell-based. Conditions: read-out: Activity.
For series [4], the system named is HepG2. Briefly: Antiproliferative activity against human HepG2 cells assessed as reduction in cell viability incubated for 48 hrs by MTT assay. It is filed as functional, cell-based. As to conditions: HepG2, 48 h.
Series [5] concerns Huh-7. Description: Antiproliferative activity against human Huh-7 cells assessed as reduction in cell viability incubated for 48 hrs by MTT assay. As to conditions: Huh-7, 48 h. In kind it is functional, cell-based.
Series [6] has as its system SMMC-7721. Description: Antiproliferative activity against human SMMC-7721 cells assessed as reduction in cell viability incubated for 48 hrs by MTT assay. In kind it is functional, cell-based. As to conditions: SMMC-7721, 48 h.
For series [7], the system named is HeLa. Description: Antiproliferative activity against human HeLa cells assessed as reduction in cell viability incubated for 48 hrs by MTT assay. It is filed as functional, cell-based.
Series [8] concerns MDA-MB-231. Briefly: Antiproliferative activity against human MDA-MB-231 cells assessed as reduction in cell viability incubated for 48 hrs by MTT assay. In kind it is functional, cell-based. As to conditions: MDA-MB-231, 48 h.
Series [9] relates to A549. Description: Antiproliferative activity against human A549 cells assessed as reduction in cell viability incubated for 48 hrs by MTT assay. It is filed as functional, cell-based. As to conditions: A549, 48 h.
A short description of series [10]: Cytotoxicity against human L02 cells assessed as reduction in cell viability incubated for 48 hrs by MTT assay. It is filed as toxicity, cell-based.
Series [11] in a line: Selectivity index, ratio of IC50 for human L02 cells to IC50 for human HepG2 cells by MTT assay. In kind it is toxicity. As to conditions: L02 cells versus HepG2 cells, read-out: Ratio IC50.
A short description of series [12]: Selectivity index, ratio of IC50 for human L02 cells to IC50 for human Huh-7 cells by MTT assay. It is filed as toxicity. As to conditions: L02 cells versus Huh-7 cells, read-out: Ratio IC50.
The nature of series [13]: Selectivity index, ratio of IC50 for human L02 cells to IC50 for human SMMC-7721 cells by MTT assay. In kind it is toxicity. As to conditions: L02 cells versus SMMC-7721 cells, read-out: Ratio IC50.
Series [14] is described as follows: Selectivity index, ratio of IC50 for human L02 cells to IC50 for human HeLa cells by MTT assay. It is filed as toxicity. As to conditions: L02 cells versus HeLa cells, read-out: Ratio IC50.
Series [15] in a line: Selectivity index, ratio of IC50 for human L02 cells to IC50 for human MDA-MB-231 cells by MTT assay. Conditions: L02 cells versus MDA-MB-231 cells, read-out: Ratio IC50. In kind it is toxicity.
A short description of series [16]: Selectivity index, ratio of IC50 for human L02 cells to IC50 for human A549 cells by MTT assay. In kind it is toxicity. As to conditions: L02 cells versus A549 cells, read-out: Ratio IC50.
Series [17] addresses T1, Nuclear receptor subfamily 4immunitygroup A member 1 (Homo sapiens, UniProt P22736). Description: Binding affinity to pBind-Nur77-LBD (unknown origin) transfected in HEK293T cells co-transfected with pG5-Luc assessed as inhibition of Nur77 transcriptional activity by measuring inhibition of Nur77-driven luciferase activity at 2 uM incubated for 12 hrs by luciferase reporter gene assay. It is filed as cell-based. As to conditions: filed as modulator.

Series [18] is described as follows: Toxicity in Zebra fish AB embryo assessed as mortality rate at 0.5 uM incubated for 24 hrs. On the set-up: species or system Danio rerio. Conditions: zebrafish, read-out: Activity.
A short description of series [19]: Toxicity in Zebra fish AB embryo assessed as mortality rate at 0.5 uM incubated for 72 hrs. As to conditions: zebrafish, read-out: Activity. On the set-up: species or system Danio rerio.
A short description of series [20]: Toxicity in Zebra fish AB embryo assessed as mortality rate at 1 uM incubated for 24 hrs. Details: species or system Danio rerio. As to conditions: zebrafish, read-out: Activity.
Series [21] can be described thus: Toxicity in Zebra fish AB embryo assessed as mortality rate at 1 uM incubated for 72 hrs. On the set-up: species or system Danio rerio. Conditions: zebrafish, read-out: Activity.
The target in series [22] is T1, Nuclear receptor subfamily 4immunitygroup A member 1. Briefly: Binding affinity to Nur77 (unknown origin).
Series [23] has the same target. Briefly: Binding affinity to Nur77-LBD (unknown origin).

Calls of active or inactive are those of the source. The rule behind the calls is not given here.

T1 sequence (P22736 whole entry, the tested form may be a part): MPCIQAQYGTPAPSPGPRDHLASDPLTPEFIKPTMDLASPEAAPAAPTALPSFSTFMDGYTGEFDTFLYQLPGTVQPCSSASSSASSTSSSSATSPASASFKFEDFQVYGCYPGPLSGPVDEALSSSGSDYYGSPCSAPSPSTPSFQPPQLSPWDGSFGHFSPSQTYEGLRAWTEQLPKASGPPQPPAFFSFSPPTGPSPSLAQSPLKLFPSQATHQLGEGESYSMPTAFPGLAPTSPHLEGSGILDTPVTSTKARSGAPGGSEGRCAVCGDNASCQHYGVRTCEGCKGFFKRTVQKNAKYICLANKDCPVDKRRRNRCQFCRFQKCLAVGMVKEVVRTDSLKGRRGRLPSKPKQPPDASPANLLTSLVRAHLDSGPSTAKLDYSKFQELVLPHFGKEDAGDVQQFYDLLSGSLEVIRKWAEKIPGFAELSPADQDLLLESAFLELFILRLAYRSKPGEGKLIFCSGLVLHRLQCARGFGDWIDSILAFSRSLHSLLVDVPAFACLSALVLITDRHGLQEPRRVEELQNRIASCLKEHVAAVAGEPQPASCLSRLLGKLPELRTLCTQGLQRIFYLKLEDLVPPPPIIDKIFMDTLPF

`O=C(Nc1ccc(F)c(F)c1F)c1cc2cc(Nc3nccc(-c4cccnc4)n3)ccc2[nH]1`: the viability at 10 µM in [1] turned out to be 99.8%; in series [2], 114%. The viability at 48 h, 10 µM in [3] stood at 109%.
For `CCCCNC(=O)c1cc2cc(Nc3nccc(-c4cccnc4)n3)ccc2[nH]1`, the viability at 10 µM was 104% in [1] and 107% in series [2]. The viability at 48 h, 10 µM in [3] is 102%.
`O=C(NCc1ccccc1)c1cc2cc(Nc3nccc(-c4cccnc4)n3)ccc2[nH]1`: the values for the viability at 10 µM in series [1] and in series [2] were 82% and 113%, respectively. Further, the viability at 48 h, 10 µM in [3] is 94.8%.
`Cc1ccccc1NC(=O)c1cc2cc(Nc3nccc(-c4cccnc4)n3)ccc2[nH]1`: the figures for the viability at 10 µM in [1] and in series [2] were 35.4% and 90.4%, respectively. Besides, the viability at 48 h, 10 µM in series [3] was determined as 84.1%.
Consider `CC1=C(O)C(=O)C=C2C1=CC=C1[C@@]2(C)CC[C@@]2(C)[C@@H]3C[C@](C)(C(=O)O)CC[C@]3(C)CC[C@]12C` [CELASTROL], for which the viability at 10 µM in series [1] came out at 49.2%; in series [2] it was 18.7%. The viability at 48 h, 10 µM in [3] was determined as 13%. Besides, the IC50 (as a rule, the concentration that inhibits the measured activity by half) was determined as 3730 nM in [4]; 4450 nM in [5]; 6040 nM in [6]; 1210 nM in series [7]; 1080 nM in series [8]; 4990 nM in [9]. Further, the IC50 at 48 h in [10] came out at 1120 nM. For the same compound, the selectivity ratio in series [11] amounted to 0.3; in series [12] it was 0.25; in series [13], 0.19; in series [14], 0.87; in [15], 1.04; in [16], 0.22. For the same compound, the result in series [17] was Active. In addition, the mortality at 24 h, 0.5 µM in [18] was 30%. For the same compound, in series [19], the mortality at 72 h, 0.5 µM was found to be 94%. Besides, the mortality at 24 h, 1 µM in [20] turned out to be 100%. For the same compound, in [21], the mortality at 72 h, 1 µM was found to be 100%.
For the compound `O=C(Nc1cc(Br)ccn1)c1cc2cc(Nc3nccc(-c4cccnc4)n3)ccc2[nH]1`, the figures for the viability at 10 µM in series [1] and in [2] were 115% and 85.9%, respectively. In series [3], the viability at 48 h, 10 µM worked out at 81.1%.
In the same order, the values of `COc1cc(NC(=O)c2cc3cc(Nc4nccc(-c5cccnc5)n4)ccc3[nH]2)cc(OC)c1` are 29.7%, 40.8% and 43.6%.
In the same order, the values of `COc1ccc(NC(=O)c2cc3cc(Nc4nccc(-c5cccnc5)n4)ccc3[nH]2)c(C)c1` are 54.8%, 82.9% and 69%.
In the same order, the values of `COc1ccc(NC(=O)c2cc3cc(Nc4nccc(-c5cccnc5)n4)ccc3[nH]2)cc1OC` are 74.4%, 109% and 91.9%.
Regarding `Cc1ccc(NC(=O)c2cc3cc(Nc4nccc(-c5cccnc5)n4)ccc3[nH]2)cc1Nc1nccc(-c2cccnc2)n1`, the values for the viability at 10 µM in series [1] and in series [2] were 95.9% and 86.5%, respectively. Besides, in series [3], the viability at 48 h, 10 µM was found to be 79.6%.
In the same order, the values of `Nc1ccc(Cl)cc1NC(=O)c1cc2cc(Nc3nccc(-c4cccnc4)n3)ccc2[nH]1` are 89.5%, 97.7% and 62.3%.
In the same order, the values of `Cc1ccc(NC(=O)c2cc3cc(Nc4nccc(-c5cccnc5)n4)ccc3[nH]2)c(C)c1` are 38.3%, 59.8% and 48.3%.
On to `O=C(N/N=C/c1ccncc1)c1cc2cc(Nc3ccnc4ccccc34)ccc2[nH]1`, for which binding in [22] was characterised by a dissociation constant (Kd) of 1170 nM.
`CCN(CC)CCCNC(=O)c1cc2cc(Nc3nccc(-c4cccnc4)n3)ccc2[nH]1`: the values for the viability at 10 µM in series [1] and in [2] were 39.4% and 67.8%, respectively. In addition, in [3], the viability at 48 h, 10 µM was 82.6%.
In the same order, the values of `O=C(Nc1ccccc1)c1cc2cc(Nc3nccc(-c4cccnc4)n3)ccc2[nH]1` are 46.4%, 84.4% and 70.9%.
As to `COc1cc(NC(=O)c2cc3cc(Nc4nccc(-c5cccnc5)n4)ccc3[nH]2)cc(OC)c1OC`, the viability at 10 µM is 44.6% in series [1] and 83.3% in series [2]. Besides, in series [3], the viability at 48 h, 10 µM was found to be 43.6%.
In the same order, the values of `O=C(NCCN1CCCCC1)c1cc2cc(Nc3nccc(-c4cccnc4)n3)ccc2[nH]1` are 24.9%, 53.7% and 59.1%.
Taken in the same sequence, the figures for `COc1cccc(NC(=O)c2cc3cc(Nc4nccc(-c5cccnc5)n4)ccc3[nH]2)c1` were 30.2%, 55.2% and 68.6%.
Taken in the same sequence, the figures for `Cc1ccc(NC(=O)c2cc3cc(Nc4nccc(-c5cccnc5)n4)ccc3[nH]2)cc1C` were 43.4%, 69.9% and 55.8%.
For the compound `O=C(NC12CC3CC(CC(C3)C1)C2)c1cc2cc(Nc3nccc(-c4cccnc4)n3)ccc2[nH]1`, the viability at 10 µM in series [1] turned out to be 124%; in series [2] it was 83.4%. Besides, the viability at 48 h, 10 µM in series [3] was found to be 81.3%.
For `COc1ccc2ccccc2c1/C=N/NC(=O)c1cc2cc(Nc3cc(C)nc4c(OC)cccc34)ccc2[nH]1`, in series [23], the Kd (usually the free concentration of one partner at which half of the binding sites on the other are occupied at equilibrium, for simple one-to-one binding) was 2250 nM.
Regarding `O=C(NCc1cccc(F)c1)c1cc2cc(Nc3nccc(-c4cccnc4)n3)ccc2[nH]1`, the values for the viability at 10 µM in [1] and in series [2] were 80% and 82.5%, respectively. Besides, the viability at 48 h, 10 µM in series [3] was determined as 71.1%.
Regarding `O=C(c1cc2cc(Nc3nccc(-c4cccnc4)n3)ccc2[nH]1)N1CCOCC1`, the figures for the viability at 10 µM in series [1] and in series [2] were 36.8% and 78.2%, respectively. Moreover, the viability at 48 h, 10 µM in series [3] was 62.3%.
In the same order, the values of `O=C(Nc1cncnc1)c1cc2cc(Nc3nccc(-c4cccnc4)n3)ccc2[nH]1` are 108%, 81.6% and 76.2%.
Regarding `Cc1ccc(NC(=O)c2cc3cc(Nc4nccc(-c5cccnc5)n4)ccc3[nH]2)c(N)c1`, the viability at 10 µM in [1] came to 29.5%; in [2], 36.2%. For the same compound, the viability at 48 h, 10 µM in series [3] is 38.3%.
Taken in the same sequence, the figures for `Nc1ccccc1NC(=O)c1cc2cc(Nc3nccc(-c4cccnc4)n3)ccc2[nH]1` were 33.2%, 76.4% and 71.1%.
